Test results taken from PMC6492180, “Cytome micronucleus assays with a metabolically competent human derived liver cell line (Huh6): A promising approach for routine testing of chemicals?” (Environmental and Molecular Mutagenesis, 2018).
Read-outs that look alike come from different tables or passages of the source. Marks after values point to notes of the source that are not given here.

Legend:
Huh6 cells = tested on: Huh6 cells
Experimental: All experiments were performed in duplicate.
3.8–4.0 × 10^5 cells per well were seeded into 6‐well plates with 3 mL of RPMI (4% FBS) for 12 hr, then dilutions of stock solutions of the diagnostic mutagens were added for different time periods (4, 24, and 48 hr). In each experimental series solvent controls were included. Subsequently, the cells were washed twice with 3.0 mL medium. […] Finally, the cells were washed and trypsinised. Afterwards the cells were washed twice with 8.0 mL RPMI and collected on slides by cytocentrifugation (600 rpm, 5 min). The slides were air dried, fixed, and stained with DiffQuick according to the instructions of the manufacturer. For each experimental point, two cultures were tested per dose. From each culture ≥1,000 BN cells were evaluated under 400‐fold magnification (Nikon Photophot‐FXA, Tokyo, Japan). At least 2,000 binucleated cells were analyzed per dose for the determination of the different nuclear anomalies (MN, NBuds, and NBs).
The experiments were performed as described in the previous chapter. The cells were exposed only to one dose of the different mutagens and were cultivated after the seeding in 6‐well plates which contained 4% or 10% FBS in RPMI, respectively.
Data were evaluated by generalized linear model with Poisson counts. Chi‐square tests for overdispersion were applied. […] P values ≤0.05 were considered statistically significant.
^150-60 000 cells were seeded in 6 well plates with 3 ml RPMI (4% FBS), subsequently different solutions of the test compound (dissolved in medium) were added. After treatment for different time periods, the cells was washed and processed as described in the Material and Method section. […] From each culture 1000 binoculated cells were evaluated. BN-MN – number of micronucleated cells; MN - total number of micronuclei; CBPI – cytokinesis-block proliferation index
^1The experiments were conducted essentially as described in the footnote of Table S1A-I. *p≤0.05

HepaRG = conditions: cited from earlier work
[1] = ref IARC (2018); cited from earlier work
Human lymphocytes = conditions: cited from earlier work
HepG2 = conditions: cited from earlier work
Hep3B = conditions: cited from earlier work
[2] = 10% FBS, 24 hr treatment, 10 µg/ml

COS(C)(=O)=O [MMS, Methyl methanesulfonate]
MN effects after 24 hr (or longer) compared with 4 hr treatment (in words) (Huh6 cells; 4% FBS): similar
BN-MN (number of micronucleated cells) (Huh6 cells; 4% FBS, 4hrs, 6 µg/ml): 20.5 ± 3.5 ‰
Bridges (Huh6 cells; 4% FBS, 4hrs, 6 µg/ml): 0.5 ± 0.7 ‰
Buds (Huh6 cells; 4% FBS, 4hrs, 6 µg/ml): 20.5 ± 3.5 ‰
CBPI (Huh6 cells; 4% FBS, 4hrs, 6 µg/ml): 1.9 ± 0.1
MN (total number of micronuclei) (Huh6 cells; 4% FBS, 4hrs, 6 µg/ml): 21.0 ± 4.2 ‰
BN-MN (number of micronucleated cells) (Huh6 cells; 4% FBS, 4hrs, 10 µg/ml): 32.5 ± 3.5* ‰
Bridges (Huh6 cells; 4% FBS, 4hrs, 10 µg/ml): 3.5 ± 0.7 ‰
Buds (Huh6 cells; 4% FBS, 4hrs, 10 µg/ml): 37.0 ± 4.2* ‰
CBPI (Huh6 cells; 4% FBS, 4hrs, 10 µg/ml): 1.7 ± 0.1
MN (total number of micronuclei) (Huh6 cells; 4% FBS, 4hrs, 10 µg/ml): 39.5 ± 0.7* ‰
BN-MN (number of micronucleated cells) (Huh6 cells; 4% FBS, 4hrs, 40 µg/ml): 40.0 ± 7.1* ‰
Bridges (Huh6 cells; 4% FBS, 4hrs, 40 µg/ml): 3.5 ± 2.1 ‰
Buds (Huh6 cells; 4% FBS, 4hrs, 40 µg/ml): 42.0 ± 17.0* ‰
CBPI (Huh6 cells; 4% FBS, 4hrs, 40 µg/ml): 1.5 ± 0.1
MN (total number of micronuclei) (Huh6 cells; 4% FBS, 4hrs, 40 µg/ml): 50.5 ± 7.8 ‰
BN-MN (number of micronucleated cells) (Huh6 cells; 4% FBS, 24hrs, 0.4 µg/ml): 16.5 ± 0.7 ‰
Bridges (Huh6 cells; 4% FBS, 24hrs, 0.4 µg/ml): 0.5 ± 0.7 ‰
Buds (Huh6 cells; 4% FBS, 24hrs, 0.4 µg/ml): 9.5 ± 0.7 ‰
CBPI (Huh6 cells; 4% FBS, 24hrs, 0.4 µg/ml): 1.7 ± 0.0
MN (total number of micronuclei) (Huh6 cells; 4% FBS, 24hrs, 0.4 µg/ml): 16.5 ± 0.7 ‰
BN-MN (number of micronucleated cells) (Huh6 cells; 4% FBS, 24hrs, 2 µg/ml): 21.5 ± 2.1 ‰
Bridges (Huh6 cells; 4% FBS, 24hrs, 2 µg/ml): 3.0 ± 0.0 ‰
Buds (Huh6 cells; 4% FBS, 24hrs, 2 µg/ml): 17.5 ± 0.7 ‰
CBPI (Huh6 cells; 4% FBS, 24hrs, 2 µg/ml): 1.7 ± 0.0
MN (total number of micronuclei) (Huh6 cells; 4% FBS, 24hrs, 2 µg/ml): 23.5 ± 2.1 ‰
BN-MN (number of micronucleated cells) (Huh6 cells; 4% FBS, 24hrs, 10 µg/ml): 29.5 ± 2.1* ‰
Bridges (Huh6 cells; 4% FBS, 24hrs, 10 µg/ml): 8.0 ± 1.4 ‰
Buds (Huh6 cells; 4% FBS, 24hrs, 10 µg/ml): 27.0 ± 1.4* ‰
CBPI (Huh6 cells; 4% FBS, 24hrs, 10 µg/ml): 1.6 ± 0.0
MN (total number of micronuclei) (Huh6 cells; 4% FBS, 24hrs, 10 µg/ml): 31.0 ± 2.8* ‰
Change of MN rates after 48 hr treatment (in words) (Huh6 cells; 4% FBS, 48 hr): slight decrease
BN-MN (number of micronucleated cells) (Huh6 cells; 4% FBS, 48hrs, 0.4 µg/ml): 18.0 ± 1.4 ‰
Bridges (Huh6 cells; 4% FBS, 48hrs, 0.4 µg/ml): 0.5 ± 0.7 ‰
Buds (Huh6 cells; 4% FBS, 48hrs, 0.4 µg/ml): 19.0 ± 1.4 ‰
CBPI (Huh6 cells; 4% FBS, 48hrs, 0.4 µg/ml): 1.8 ± 0.0
MN (total number of micronuclei) (Huh6 cells; 4% FBS, 48hrs, 0.4 µg/ml): 20.0 ± 1.4 ‰
BN-MN (number of micronucleated cells) (Huh6 cells; 4% FBS, 48hrs, 2 µg/ml): 20.5 ± 0.7 ‰
Bridges (Huh6 cells; 4% FBS, 48hrs, 2 µg/ml): 2.5 ± 0.7 ‰
Buds (Huh6 cells; 4% FBS, 48hrs, 2 µg/ml): 19.5 ± 0.7 ‰
CBPI (Huh6 cells; 4% FBS, 48hrs, 2 µg/ml): 1.9 ± 0.0
MN (total number of micronuclei) (Huh6 cells; 4% FBS, 48hrs, 2 µg/ml): 23.5 ± 0.7 ‰
BN-MN (number of micronucleated cells) (Huh6 cells; 4% FBS, 48hrs, 10 µg/ml): 24.0 ± 2.8 ‰
Bridges (Huh6 cells; 4% FBS, 48hrs, 10 µg/ml): 0.5 ± 0.7 ‰
Buds (Huh6 cells; 4% FBS, 48hrs, 10 µg/ml): 27.0 ± 1.4 ‰
CBPI (Huh6 cells; 4% FBS, 48hrs, 10 µg/ml): 1.7 ± 0.0
MN (total number of micronuclei) (Huh6 cells; 4% FBS, 48hrs, 10 µg/ml): 25.5 ± 3.5 ‰
BN-MN (number of micronucleated cells) (Huh6 cells; [2]): 27.5 ± 2.1*
Bridges (Huh6 cells; [2]): 0.0 ± 0.0
Buds (Huh6 cells; [2]): 20.0 ± 2.8
CBPI (Huh6 cells; [2]): 1.8 ± 0.0
MN (total number of micronuclei) (Huh6 cells; [2]): 30.0 ± 1.4*
MN frequencies with 10% serum compared with 4% serum (in words) (Huh6 cells; 24 hr treatment): not increased
Lowest effective concentration (LOEC) in micronucleus experiments (Huh6 cells; Huh6): 10.0 µg/mL
Lowest effective concentration (LOEC) in micronucleus experiments (HepaRG; HepaRG, ref Josse et al., 2012): 9.9 (Josse et al., 2012) μg/mL
MN formation with the longer exposure time, treatment for 1 or 7 days (in words) (HepaRG; HepaRG, ref Josse et al., 2012): no such effects
IARC classification [1]: Methylation of DNA bases; causes gene mutations and CA; IARC: Group 2A
Lowest effective concentration (LOEC) in micronucleus experiments (Human lymphocytes; Human lymphocytes, ref Andreoli et al., 1999): 15.4 µg/mL
Lowest effective concentration (LOEC) in micronucleus experiments (Human lymphocytes; Human lymphocytes, ref Fowler et al., 2014): 51.0 µg/mL
MN induction after 28 hr compared with 1 hr exposure (in words) (HepG2; HepG2, ref Natarajan and Darroudi (1991)): less pronounced effect
Lowest effective concentration (LOEC) in micronucleus experiments (HepG2; HepG2, ref Valentin‐Severin et al., 2003): 11.0 (Valentin‐Severin et al., 2003) μg/mL

Aflatoxin B1 [AFB1]
Lowest effective concentration (LOEC) in micronucleus experiments (Hep3B): 0.5 (Majer et al., 2004) μM
Lowest effective concentration (LOEC) in micronucleus experiments (Huh6 cells): 10.0 µM
MN effects after 24 hr (or longer) compared with 4 hr treatment (in words) (Huh6 cells): similar
MN frequencies with 10% serum compared with 4% serum (in words) (Huh6 cells): stronger effects
Lowest effective concentration (LOEC) in micronucleus experiments (HepaRG): 0.25 (Le Hegarat et al., 2010) μM
MN formation with the longer exposure time, treatment for 1 or 7 days (in words) (HepaRG): stronger effects
Lowest effective concentration (LOEC) in micronucleus experiments (Human lymphocytes): 0.1 + S9 (Miller et al., 1998) μM
Lowest effective concentration (LOEC) in micronucleus experiments (HepG2): 0.5 (Josse et al., 2012) μM
